Structures can show the parent of a compound that is named as a salt. The source made the active and inactive calls. No cut-off for these calls is given here.
Legend:
[1] = target: Carbonic anhydrase 1 (Homo sapiens, UniProt P00915); test: Inhibition of human CA1 pre-incubated for 15 mins by stopped-flow CO2 hydration method
[2] = target: Carbonic anhydrase 2 (Homo sapiens, UniProt P00918); test: Inhibition of human CA2 pre-incubated for 15 mins by stopped-flow CO2 hydration method
[3] = target: Carbonic anhydrase 9 (Homo sapiens, UniProt Q16790); test: Inhibition of human CA9 pre-incubated for 15 mins by stopped-flow CO2 hydration method
[4] = target: Carbonic anhydrase 12 (Homo sapiens, UniProt O43570); test: Inhibition of human CA12 pre-incubated for 15 mins by stopped-flow CO2 hydration method
Chain of Carbonic anhydrase 12 (O43570 whole entry): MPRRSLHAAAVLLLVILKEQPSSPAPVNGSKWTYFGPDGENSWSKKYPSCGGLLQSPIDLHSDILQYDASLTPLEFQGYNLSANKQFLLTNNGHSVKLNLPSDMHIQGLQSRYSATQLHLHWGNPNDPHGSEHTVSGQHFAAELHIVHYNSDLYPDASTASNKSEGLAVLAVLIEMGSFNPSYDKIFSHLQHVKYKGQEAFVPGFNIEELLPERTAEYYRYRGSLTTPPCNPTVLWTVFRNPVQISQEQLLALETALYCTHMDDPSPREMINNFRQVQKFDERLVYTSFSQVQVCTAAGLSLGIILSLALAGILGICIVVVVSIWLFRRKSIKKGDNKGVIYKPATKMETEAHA

[5] = tested on: Oryctolagus cuniculus; test: Antiglaucoma activity in carbomer-induced glaucoma in albino rabbit assessed as reduction in intra ocular pressure dosed as 2% compound solution measured 2 hrs post dose (vehicle treated contralateral eye Rvb = 37 to 39 mmHg); format: functional
[6] = tested on: Oryctolagus cuniculus; test: Antiglaucoma activity in carbomer-induced glaucoma in albino rabbit assessed as reduction in intra ocular pressure dosed as 2% compound solution measured 3 to 4 hrs post dose; format: functional, organism-based; conditions: Eye
[7] = tested on: Oryctolagus cuniculus; test: Antiglaucoma activity in carbomer-induced glaucoma in albino rabbit assessed as reduction in intra ocular pressure dosed as 2% compound solution; format: functional, organism-based; conditions: Eye, TDE = time-dependent effect
[8] = tested on: Oryctolagus cuniculus; test: Antiglaucoma activity in carbomer-induced glaucoma in albino rabbit assessed as reduction in intra ocular pressure dosed as 2% compound solution measured 2 hrs post dose (vehicle treated contralateral eye Rvb = 37 to 40 mmHg); format: functional

Chain of Carbonic anhydrase 1 (P00915 whole entry): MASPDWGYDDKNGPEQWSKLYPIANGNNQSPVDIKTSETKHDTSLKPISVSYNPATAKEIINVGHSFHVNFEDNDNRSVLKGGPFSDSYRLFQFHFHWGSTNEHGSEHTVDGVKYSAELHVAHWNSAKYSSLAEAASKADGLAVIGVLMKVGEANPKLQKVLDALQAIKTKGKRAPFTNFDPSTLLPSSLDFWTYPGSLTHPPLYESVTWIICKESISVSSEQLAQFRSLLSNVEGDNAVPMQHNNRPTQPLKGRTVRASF

| SMILES | Ki [3] | further results |
| --- | --- | --- |
| S=C(S)N1CCCC1 | 70.4 nM | Ki [1]: 0.96 nM; Ki [2]: 27.5 nM; Ki [4]: 46.1 nM |
| O=C(O)[C@@H]1CCCN1C(=S)S | 4.1 nM | – |
| CN1CCN(NC(=S)S)CC1 | 22.1 nM | – |
| S=C(S)NCCN(CCNC(=S)S)CCNC(=S)S | 27.4 nM | – |
| S=C(S)Nc1ccccc1 [TRIETHYLAMMONIUM PHENYLCARBAMODITHIOATE] | 4.2 nM | – |
| S=C(S)NN1CCOCC1 [POTASSIUM MORPHOLINOCARBAMODITHIOATE] | 29.1 nM | – |
| CN(Cc1ccccc1)C(=S)S [SODIUM BENZYL(METHYL)CARBAMODITHIOATE] | 53 nM | – |
| O=C(O)CNC(=S)S | 57.1 nM | – |
| CCCN(CCC)C(=S)S [DIPROPYLCARBAMODITHIOATE SODIUM SALT] | 53.8 nM | – |
| S=C(S)NCCN1CCOCC1 | 4.5 nM | – |
| S=C([S-])N1CCN(C(=S)[S-])CC1.[Na+].[Na+] [PIPERAZINECARBAMODITHIOATE DISODIUM SALT] | 37.5 nM | Activity [5]: 6 mmHg; Activity [6]: Active; Activity [7]: tde |
| CCCCCCN(CCCCCC)C(=S)S [DIHEXYLCARBAMODITHIOATE SODIUM SALT] | 27.4 nM | – |
| S=C(S)Nc1nccs1 | 12.6 nM | – |
| CCN(CC)C(=S)S [DITIOCARB SODIUM] | 1410 nM | Ki [4]: 1100 nM |
| S=C(S)NCc1ccncc1 | 26 nM | – |
| N#CC1(c2ccccc2)CCN(C(=S)S)CC1 | 757 nM | – |
| OCCN(CCO)C(=S)S | 4.3 nM | – |
| S=C(S)NCCCn1ccnc1 | 4.3 nM | – |
| CN(C(=S)S)c1ccccc1 [SODIUM METHYL(PHENYL)CARBAMODITHIOATE] | 28.2 nM | – |
| CCC(C)NC(=S)S (racemic) | 4.6 nM | – |
| CCCCN(CCCC)C(=S)S [DIBUTYLCARBAMODITHIOATE SODIUM SALT] | 50.3 nM | – |
| S=C(S)NCCN1CCCCC1 | 3.6 nM | – |
| CN(C)C(=S)S [SODIUM DIMETHYLCARBAMODITHIOATE] | 714 nM | Ki [1]: 699 nM; Ki [2]: 6910 nM; Ki [4]: 798 nM |
| CCCCN(CC)C(=S)S [ETHYLBUTYLCARBAMODITHIOATE SODIUM SALT] | 25.9 nM | – |
| S=C(S)NCc1ccccc1 [SODIUM BENZYLCARBAMODITHIOATE] | 19.2 nM | – |
| CC(C)CN(CC(C)C)C(=S)S [DIISOBUTYLCARBODITHIOIC ACID SODIUM SALT] | 4.5 nM | – |
| S=C([S-])N1CCOCC1.[Na+] [MORPHOLINECARBAMODITHIOATE SODIUM SALT] | 6.2 nM | Activity [6]: Active; Activity [8]: 6 mmHg; Activity [7]: tde |

Reference: ChEMBL document CHEMBL2021877, “Dithiocarbamates strongly inhibit carbonic anhydrases and show antiglaucoma action in vivo” (J Med Chem, 2012)
